These results are taken from ChEMBL document CHEMBL1156264, “Synthesis and structure-activity relationships of dimeric peptide antagonists of the human immunoglobulin G-human neonatal Fc receptor (IgG-FcRn) interaction” (J Med Chem, 2010).

Numbered stars: 1 amine (or outer) side, 2 acyl side, 3 side chain; on linkers, the order of the positions; unused ones are H or OH. Bridge positions count the residues as written; N and C are the ends. Square brackets hold non-standard residues; d marks the D form. Peptide text beside a SMILES is read from it. I, II: the chains in the order shown. X1 = O=C(C(=O)[*:2])[C@H](Cc1ccc(O)cc1)N[*:1]; NHCH2CH2N(Me)CH2CO = CN(CCN[*:1])CC(=O)[*:2]; NMeL = CN[C@@H](CC(C)C)C(=O)O; Pen = CC(C)(S)[C@H](N)C(=O)O; X2 = C(CN[*:1])NCCN[*:2]; Sar = CNCC(=O)O

The target in test [1] is T1, IgG receptor FcRn large subunit p51 (Homo sapiens, UniProt P55899). The experiment in a line: Inhibition of IgG binding to soluble human FcRn after 2 hrs by competition ELISA. In general terms: ELISA stands for enzyme-linked immunosorbent assay.
The target of test [2] is T1, IgG receptor FcRn large subunit p51. The experiment in a line: Ratio of RF-Pen-TGHFG-Sar-NMeLeu-YPC IC50 to compound IC50 for soluble human FcRn.

T1 sequence (P55899 whole entry): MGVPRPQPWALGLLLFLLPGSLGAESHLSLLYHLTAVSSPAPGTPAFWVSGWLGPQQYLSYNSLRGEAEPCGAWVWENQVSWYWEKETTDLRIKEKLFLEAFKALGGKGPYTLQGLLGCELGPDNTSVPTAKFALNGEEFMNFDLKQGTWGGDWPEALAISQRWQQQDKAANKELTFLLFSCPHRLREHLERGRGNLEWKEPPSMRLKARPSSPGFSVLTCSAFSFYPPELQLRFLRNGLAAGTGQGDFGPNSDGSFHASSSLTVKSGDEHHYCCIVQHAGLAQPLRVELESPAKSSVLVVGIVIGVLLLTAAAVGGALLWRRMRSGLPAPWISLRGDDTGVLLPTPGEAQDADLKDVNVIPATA

As a reminder, the IC50 is the concentration needed to halve the response being measured. In turn, `CC(C)C[C@H]1C(=O)N[C@@H](Cc2ccc(O)cc2)C(=O)C(=O)N2CCC[C@H]2C(=O)N[C@H](C(N)=O)CSSC(C)(C)[C@H](NC(=O)[C@H](Cc2ccccc2)NC(=O)[C@H](CCCNC(=N)N)NCCNC(=O)CCC(=O)N[C@@H](CCCNC(=N)N)C(=O)N[C@@H](Cc2ccccc2)C(=O)N[C@@H]2C(=O)N[C@@H]([C@@H](C)O)C(=O)NCC(=O)N[C@@H](Cc3c[nH]cn3)C(=O)N[C@@H](Cc3ccccc3)C(=O)NCC(=O)N(C)CC(=O)N(C)[C@@H](CC(C)C)C(=O)N[C@@H](Cc3ccc(O)cc3)C(=O)C(=O)N3CCC[C@H]3C(=O)N[C@H](C(N)=O)CSSC2(C)C)C(=O)N[C@@H]([C@@H](C)O)C(=O)NCC(=O)N[C@@H](Cc2c[nH]cn2)C(=O)N[C@@H](Cc2ccccc2)C(=O)NCC(=O)N(C)CC(=O)N1C` returned an IC50 in test [1] of 1.6 nM. The Ratio IC50 in test [2] was determined as 330.
`CC(C)C[C@H]1C(=O)N[C@@H](Cc2ccc(O)cc2)C(=O)C(=O)N2CCC[C@H]2C(=O)N[C@H](C(N)=O)CSSC(C)(C)[C@H](NC(=O)[C@H](Cc2ccccc2)NC(=O)[C@H](CCCNC(=N)N)NC(=O)CCOCCOCCOCCOCCOCCC(=O)N[C@@H](CCCNC(=N)N)C(=O)N[C@@H](Cc2ccccc2)C(=O)N[C@@H]2C(=O)N[C@@H]([C@@H](C)O)C(=O)NCC(=O)N[C@@H](Cc3c[nH]cn3)C(=O)N[C@@H](Cc3ccccc3)C(=O)NCC(=O)N(C)CC(=O)N(C)[C@@H](CC(C)C)C(=O)N[C@@H](Cc3ccc(O)cc3)C(=O)C(=O)N3CCC[C@H]3C(=O)N[C@H](C(N)=O)CSSC2(C)C)C(=O)N[C@@H]([C@@H](C)O)C(=O)NCC(=O)N[C@@H](Cc2c[nH]cn2)C(=O)N[C@@H](Cc2ccccc2)C(=O)NCC(=O)N(C)CC(=O)N1C`: in test [2], the Ratio IC50 stood at 110.
The same measure, in the same setting: under `CC(C)C[C@H]1C(=O)N[C@@H](Cc2ccc(O)cc2)C(=O)C(=O)N2CCC[C@H]2C(=O)N[C@H](C(N)=O)CSSC(C)(C)[C@H](NC(=O)[C@H](Cc2ccccc2)NC(=O)[C@H](CCCNC(=N)N)NC(=O)CN(C)CC(=O)N[C@@H](CCCNC(=N)N)C(=O)N[C@@H](Cc2ccccc2)C(=O)N[C@@H]2C(=O)N[C@@H]([C@@H](C)O)C(=O)NCC(=O)N[C@@H](Cc3c[nH]cn3)C(=O)N[C@@H](Cc3ccccc3)C(=O)NCC(=O)N(C)CC(=O)N(C)[C@@H](CC(C)C)C(=O)N[C@@H](Cc3ccc(O)cc3)C(=O)C(=O)N3CCC[C@H]3C(=O)N[C@H](C(N)=O)CSSC2(C)C)C(=O)N[C@@H]([C@@H](C)O)C(=O)NCC(=O)N[C@@H](Cc2c[nH]cn2)C(=O)N[C@@H](Cc2ccccc2)C(=O)NCC(=O)N(C)CC(=O)N1C` stands 110; under `CC(C)C[C@H]1C(=O)N[C@@H](Cc2ccc(O)cc2)C(=O)C(=O)N2CCC[C@H]2C(=O)N[C@H](C(=O)NCC(=O)NCCNCCNC(=O)CNC(=O)[C@@H]2CSSC(C)(C)[C@H](NC(=O)[C@H](Cc3ccccc3)NC(=O)[C@@H](N)CCCNC(=N)N)C(=O)N[C@@H]([C@@H](C)O)C(=O)NCC(=O)N[C@@H](Cc3c[nH]cn3)C(=O)N[C@@H](Cc3ccccc3)C(=O)NCC(=O)N(C)CC(=O)N(C)[C@@H](CC(C)C)C(=O)N[C@@H](Cc3ccc(O)cc3)C(=O)C(=O)N3CCC[C@H]3C(=O)N2)CSSC(C)(C)[C@H](NC(=O)[C@H](Cc2ccccc2)NC(=O)[C@@H](N)CCCNC(=N)N)C(=O)N[C@@H]([C@@H](C)O)C(=O)NCC(=O)N[C@@H](Cc2c[nH]cn2)C(=O)N[C@@H](Cc2ccccc2)C(=O)NCC(=O)N(C)CC(=O)N1C` (I: H-RF[Pen]TGHFG[Sar][NMeL][X1]PCG / II: H-RF[Pen]TGHFG[Sar][NMeL][X1]PCG; disulfide I:3-I:13, II:3-II:13; linker I:C-II:C via X2), 120.
Consider `CC(C)C[C@H]1C(=O)N[C@@H](Cc2ccc(O)cc2)C(=O)C(=O)N2CCC[C@H]2C(=O)N[C@H](C(N)=O)CSSC(C)(C)[C@H](NC(=O)[C@H](Cc2ccccc2)NC(=O)[C@H](CCCNC(=N)N)NC(=O)CC[C@H](C)C(=O)N[C@@H](CCCNC(=N)N)C(=O)N[C@@H](Cc2ccccc2)C(=O)N[C@@H]2C(=O)N[C@@H]([C@@H](C)O)C(=O)NCC(=O)N[C@@H](Cc3c[nH]cn3)C(=O)N[C@@H](Cc3ccccc3)C(=O)NCC(=O)N(C)CC(=O)N(C)[C@@H](CC(C)C)C(=O)N[C@@H](Cc3ccc(O)cc3)C(=O)C(=O)N3CCC[C@H]3C(=O)N[C@H](C(N)=O)CSSC2(C)C)C(=O)N[C@@H]([C@@H](C)O)C(=O)NCC(=O)N[C@@H](Cc2c[nH]cn2)C(=O)N[C@@H](Cc2ccccc2)C(=O)NCC(=O)N(C)CC(=O)N1C`, for which the IC50 in test [1] stood at 5.6 nM. Moreover, in test [2], the Ratio IC50 worked out at 90.
In the case of `CC(C)C[C@H]1C(=O)N[C@@H](Cc2ccc(O)cc2)C(=O)C(=O)N2CCC[C@H]2C(=O)N[C@H](C(N)=O)CSSC(C)(C)[C@H](NC(=O)[C@H](Cc2ccccc2)NC(=O)[C@H](CCCNC(=N)N)NC(=O)C[C@H](C)C(=O)N[C@@H](CCCNC(=N)N)C(=O)N[C@@H](Cc2ccccc2)C(=O)N[C@@H]2C(=O)N[C@@H]([C@@H](C)O)C(=O)NCC(=O)N[C@@H](Cc3c[nH]cn3)C(=O)N[C@@H](Cc3ccccc3)C(=O)NCC(=O)N(C)CC(=O)N(C)[C@@H](CC(C)C)C(=O)N[C@@H](Cc3ccc(O)cc3)C(=O)C(=O)N3CCC[C@H]3C(=O)N[C@H](C(N)=O)CSSC2(C)C)C(=O)N[C@@H]([C@@H](C)O)C(=O)NCC(=O)N[C@@H](Cc2c[nH]cn2)C(=O)N[C@@H](Cc2ccccc2)C(=O)NCC(=O)N(C)CC(=O)N1C`, the IC50 in test [1] was 4.6 nM. The Ratio IC50 in test [2] amounted to 110.
As for `CC(C)C[C@H]1C(=O)N[C@@H](Cc2ccc(O)cc2)C(=O)C(=O)N2CCC[C@H]2C(=O)N[C@H](C(N)=O)CSSC(C)(C)[C@H](NC(=O)[C@H](Cc2ccccc2)NC(=O)[C@H](CCCNC(=N)N)NC(=O)CC(C)(C)CC(=O)N[C@@H](CCCNC(=N)N)C(=O)N[C@@H](Cc2ccccc2)C(=O)N[C@@H]2C(=O)N[C@@H]([C@@H](C)O)C(=O)NCC(=O)N[C@@H](Cc3c[nH]cn3)C(=O)N[C@@H](Cc3ccccc3)C(=O)NCC(=O)N(C)CC(=O)N(C)[C@@H](CC(C)C)C(=O)N[C@@H](Cc3ccc(O)cc3)C(=O)C(=O)N3CCC[C@H]3C(=O)N[C@H](C(N)=O)CSSC2(C)C)C(=O)N[C@@H]([C@@H](C)O)C(=O)NCC(=O)N[C@@H](Cc2c[nH]cn2)C(=O)N[C@@H](Cc2ccccc2)C(=O)NCC(=O)N(C)CC(=O)N1C`, the Ratio IC50 in test [2] worked out at 100.
As to `CC(C)C[C@H]1C(=O)N[C@@H](Cc2ccc(O)cc2)C(=O)C(=O)N2CCC[C@H]2C(=O)N[C@H](C(N)=O)CSSC(C)(C)[C@H](NC(=O)[C@H](Cc2ccccc2)NC(=O)[C@H](CCCNC(=N)N)NC(=O)CN(C)CCNC(=O)CNC(=O)[C@@H]2CSSC(C)(C)[C@H](NC(=O)[C@H](Cc3ccccc3)NC(=O)[C@@H](N)CCCNC(=N)N)C(=O)N[C@@H]([C@@H](C)O)C(=O)NCC(=O)N[C@@H](Cc3c[nH]cn3)C(=O)N[C@@H](Cc3ccccc3)C(=O)NCC(=O)N(C)CC(=O)N(C)[C@@H](CC(C)C)C(=O)N[C@@H](Cc3ccc(O)cc3)C(=O)C(=O)N3CCC[C@H]3C(=O)N2)C(=O)N[C@@H]([C@@H](C)O)C(=O)NCC(=O)N[C@@H](Cc2c[nH]cn2)C(=O)N[C@@H](Cc2ccccc2)C(=O)NCC(=O)N(C)CC(=O)N1C` (H-RF[Pen]TGHFG[Sar][NMeL][X1]PCG[NHCH2CH2N(Me)CH2CO]RF[Pen]TGHFG[Sar][NMeL][X1]PC-NH2; disulfide 3-13, 18-28), the Ratio IC50 in test [2] was 130.
